Measured values reported in US20170066717A1, “NEW PHENYLAZETIDINECARBOXYLATE OR -CARBOXAMIDE COMPOUNDS” (INVENTIVA, priority 2014, published 2017).

Tests used:
[1] = Plasma pharmacokinetics in mice after oral administration; assay type: in vivo; details: mouse, male C57/Bl6 mice, oral 10 mg/kg; for AUC: sampling 15 min to 7 h, log-linear trapezoidal method, read-out: AUCplasma; for Cmax: suspension in 1% methylcellulose/0.1% Poloxamer 188
Method in brief: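 Male C57/B16 mice (25-30 g, fed, 9 per dose) received 10 mg/kg by oral gavage as a suspension in 1% methylcellulose 400 cps/0.1% Poloxamer 188/water. Plasma was sampled at 15 min, 30 min, 1 h, 3 h and 7 h and quantified by LC-MS/MS after protein precipitation. Parameters were derived non-compartmentally, with AUC by the log-linear trapezoidal method.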

NURR-1/RXRα = biological target: T1, NURR-1/RXRα (Homo sapiens, UniProt P19793); assay: Transactivation test, NURR-1-Gal4/RXRα, luciferase reporter in Cos-7 cells; assay type: cell-based; details: for Emax: COS-7, induction level relative to reference XCT0135908 at 2×10^−5 M (=100%), read-out: hNurr1_RXRaFL Emax (%); for EC50: Cos-7 cells, NURR-1-Gal4/RXRα, luciferase reporter, read-out: hNurr1_RXRaFL EC50
T1 construct: expressed in transfected cells; host or cells: Cos-7 cells
T1 sequence (P19793 whole entry, the tested form may be a part): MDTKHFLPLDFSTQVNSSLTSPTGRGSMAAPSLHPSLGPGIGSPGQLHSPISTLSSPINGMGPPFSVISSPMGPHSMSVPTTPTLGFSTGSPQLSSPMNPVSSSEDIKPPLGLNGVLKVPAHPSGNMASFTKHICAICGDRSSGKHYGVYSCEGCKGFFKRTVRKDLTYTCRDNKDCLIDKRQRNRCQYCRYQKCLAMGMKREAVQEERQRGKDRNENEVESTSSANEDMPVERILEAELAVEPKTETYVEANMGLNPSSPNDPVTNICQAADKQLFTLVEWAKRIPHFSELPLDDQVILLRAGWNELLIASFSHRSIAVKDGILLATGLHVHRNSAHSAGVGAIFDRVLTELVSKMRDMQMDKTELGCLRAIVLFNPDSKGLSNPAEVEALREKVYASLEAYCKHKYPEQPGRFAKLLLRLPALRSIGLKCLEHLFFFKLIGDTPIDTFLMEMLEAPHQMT
T1 sequence (P43354 whole entry partner, the tested form may be a part): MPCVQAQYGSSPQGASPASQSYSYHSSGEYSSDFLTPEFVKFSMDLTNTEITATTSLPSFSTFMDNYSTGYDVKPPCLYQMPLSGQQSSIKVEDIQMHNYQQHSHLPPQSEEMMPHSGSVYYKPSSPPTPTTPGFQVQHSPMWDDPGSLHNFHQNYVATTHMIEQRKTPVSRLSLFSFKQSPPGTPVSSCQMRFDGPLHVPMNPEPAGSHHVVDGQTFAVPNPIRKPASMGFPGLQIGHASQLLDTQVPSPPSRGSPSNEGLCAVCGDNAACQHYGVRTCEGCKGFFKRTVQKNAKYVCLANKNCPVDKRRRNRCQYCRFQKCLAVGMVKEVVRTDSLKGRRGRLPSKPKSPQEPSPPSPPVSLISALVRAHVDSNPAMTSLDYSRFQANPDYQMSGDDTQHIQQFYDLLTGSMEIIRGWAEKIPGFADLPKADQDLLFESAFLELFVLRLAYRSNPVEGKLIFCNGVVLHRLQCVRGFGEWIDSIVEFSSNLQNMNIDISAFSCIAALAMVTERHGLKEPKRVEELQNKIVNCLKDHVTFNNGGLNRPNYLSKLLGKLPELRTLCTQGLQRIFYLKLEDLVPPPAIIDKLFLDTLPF
T1 sequence (P04386 1-147 partner limits assumed): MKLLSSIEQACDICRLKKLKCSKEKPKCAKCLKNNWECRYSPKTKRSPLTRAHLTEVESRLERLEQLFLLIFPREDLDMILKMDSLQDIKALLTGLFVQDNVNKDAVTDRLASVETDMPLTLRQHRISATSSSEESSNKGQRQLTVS

[2] = Brain penetration in rats after intravenous administration; assay type: in vivo; details: rat; for Kp at 4 h: male, Wistar, intravenous, 4 mg/kg, ratio of Cmax brain to Cmax plasma after the 4 hours of infusion, rats, read-out: Kp (partition coefficient between the brain and the plasma); for Cmax at 4 h: male Wistar rats, 4 mg/kg iv infusion into the jugular vein for 4 hours, plasma at end of infusion
Method in brief: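 Male Wistar rats (250-300 g, fed, n=4) received test compound by 4-hour jugular vein infusion at 4 mg/kg in 2% Cremophor EL/0.9% NaCl. At the end of infusion, plasma and brain homogenate were analysed by LC-MS/MS; Kp is the brain-to-plasma concentration ratio after 4 hours.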

NURR-1/RXRγ = biological target: T2, NURR-1/RXRγ (Homo sapiens, UniProt P48443); assay: Transactivation test, NURR-1-Gal4/RXRγ, luciferase reporter in Cos-7 cells; assay type: cell-based; details: for Emax: COS-7, induction level relative to reference XCT0135908 at 2×10^−5 M (=100%), read-out: hNurr1_RXRgFL Emax (%); for EC50: Cos-7 cells, NURR-1-Gal4/RXRγ, luciferase reporter, read-out: hNurr1_RXRgFL EC50
T2 construct: expressed in transfected cells; host or cells: Cos-7 cells
T2 sequence (P48443 whole entry, the tested form may be a part): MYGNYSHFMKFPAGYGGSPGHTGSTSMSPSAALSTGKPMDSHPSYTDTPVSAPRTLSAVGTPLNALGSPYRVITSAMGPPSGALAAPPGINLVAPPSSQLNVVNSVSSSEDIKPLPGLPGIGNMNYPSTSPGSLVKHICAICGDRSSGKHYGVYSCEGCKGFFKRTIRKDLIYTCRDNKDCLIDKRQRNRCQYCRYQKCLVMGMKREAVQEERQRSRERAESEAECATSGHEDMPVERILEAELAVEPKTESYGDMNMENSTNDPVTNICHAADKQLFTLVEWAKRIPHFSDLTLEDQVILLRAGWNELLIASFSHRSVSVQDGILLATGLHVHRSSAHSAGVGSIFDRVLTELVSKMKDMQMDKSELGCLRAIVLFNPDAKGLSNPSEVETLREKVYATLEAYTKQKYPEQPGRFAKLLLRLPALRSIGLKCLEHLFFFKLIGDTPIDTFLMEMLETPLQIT
T2 sequence (P43354 whole entry partner, the tested form may be a part): as the sequence (P43354 whole entry partner, the tested form may be a part) above
T2 sequence (P04386 1-147 partner limits assumed): as the sequence (P04386 1-147 partner limits assumed) above

## CC1(C)CCC(C)(C)c2cc(-c3cccc(N4CC(C(=O)O)C4)c3)ccc21 [Example 10, 1-[5-(1,1,4,4-tetrametyltetralin-6-yl)phenyl]azetidine-3-carboxylic acid]
[1]
  AUC: 25700 ng·h/mL
  Cmax: 8760 ng/mL
NURR-1/RXRα
  Emax: 84%
  EC50: 8 nM
[2]
  Kp at 4 h: 1.28
  Cmax at 4 h: 4300 ng/mL
NURR-1/RXRγ
  Emax: 85%
  EC50: 24 nM

## CC(C)CC1CN(c2cccc(N3CC(C(=O)O)C3)c2)c2ccc(C(F)(F)F)cc2O1 (stereo not shown) [Example 118, 1-[3-[2-isobutyl-7-(trilfuoromethyl)-2,3-dihydro-1,4-benzoxazin-4-yl]phenyl]azetidine-3-carboxylic acid]
[1]
  AUC: 9820 ng·h/mL
  Cmax: 4600 ng/mL
NURR-1/RXRα
  Emax: 83%
  EC50: 31 nM
[2]
  Kp at 4 h: 0.35
  Cmax at 4 h: 3480 ng/mL
NURR-1/RXRγ
  Emax: 80%
  EC50: 47 nM
